Assay [1] concerns the target T1, Arabidopsis thaliana GID1C based sensor (Arabidopsis thaliana, UniProt Q940G6).
T1 construct: expressed in transfected cells; host or cells: Arabidopsis thaliana ga1-3 mutant plants (Ler background), Agrobacterium floral dip, construct IR216 (35S::GID1CLUC in pFK210)
Description: in planta assay: GA sensor in ga1-3 mutant plants sprayed with GA3, luciferase imaging. To be noted: ga1-3 plants containing the sensor, sprayed with 100 μM GA3 solution vs mock; FIG. 4. It is filed as in vivo. From the text:
To validate in planta the results obtained in yeast, the inventors introduced the GA sensors under the control of the constitutive viral promoter 35S into Arabidopsis thaliana plants. The constructs IR208 and IR216 were independently introduced using the floral dip method of Agrobacterium-mediated transformation into the Arabidopsis thaliana Ler-1 (Landsberg erecta) wild-type strain and its isogenic ga1-3 mutant strain (containing a deletion in the gene for the enzyme that catalyzes an early step in the synthesis of GA: Sun et al., Plant Cell, 1992, 4, 119-128). Plants were grown in soil under Basta™ selection and short day conditions (8h light/16h dark).
In this case, the Arabidopsis thaliana GID1C based sensor produced a faster and stronger signal than the Arabidopsis thaliana GID1B based sensor. To ascertain whether the reporter system according to the invention could quantitatively report the presence of endogenous bioactive GA isoforms, the inventors grew the Arabidopsis thaliana Ler-1 wild-type plants containing the Arabidopsis thaliana GID1C based sensor along with Arabidopsis thaliana GA3ox1-GUS and GA3ox2-GUS reporter lines. The GA sensor was active in a pattern that indicated the presence of active forms of GA in emerging leaves and at the base and vasculature of older leaves. […]

Assay [2] deals with T2, GID1B based sensor (GID1B.5) (Arabidopsis thaliana, UniProt Q9LYC1, V53A).
T2 construct: a GID1B based sensor with overlapping firefly luciferase fragments (plasmid IR235); expressed in transfected cells; host or cells: Saccharomyces cerevisiae (yeast), plasmid printed as IR235
The experiment in a line: yeast solid media luciferase assay, GID1B based sensor (GID1B.5) with overlapping firefly luciferase fragments. It is filed as cell-based. To be noted: GA3 100 μM vs mock (100% ethanol), FIG. 7. Here is the method: In order to assess the impact of the presence of overlapping parts of firefly luciferase on the GID1B based sensor (GID1B.5) at the split point, a GID1B based sensor with overlapping firefly luciferase fragments (plasmid IR235) was compared in a Y2H assay to a GID1B based sensor without overlapping firefly luciferase fragments (plasmid IR241).
Four representative colonies were selected and plated onto Nylon membranes as described before. After 3 days at 30° C. the membranes were incubated in selective media containing luciferase substrate for 4 hours in dark at room temperature. Each replicate was subsequently transferred to plates containing selective media supplemented with luciferase substrate. […] Luciferase activity was recorded as indicated before.

The target of assay [3] is T3, GID1C based sensor peptide with co-expression of a DELLA protein (GAI) (Arabidopsis thaliana, UniProt Q940G6).
T3 construct: expressed in transfected cells; host or cells: Saccharomyces cerevisiae AH109, plasmids IR214 (GID1CLUC-pDest22) and IR236 (GAI in pDEST32)
The experiment in a line: yeast liquid luciferase assay, GID1C based sensor with co-expression of the DELLA protein GAI. Type of assay: cell-based. To be noted: Saccharomyces cerevisiae, GAI co-expressed; FIG. 6D. Here is the method:
Two representative colonies were selected and plated onto Nylon membranes as described before. After 3 days at 30° C. the membranes were incubated in selective media containing luciferase substrate for 4 hours in dark at room temperature. […] Luciferase activity was recorded as indicated before. For liquid assays, the inventors inoculated one representative colony for each version of the sensor in 5 ml of selective media (YNB, MPBlo, supplemented with CSM Trp^−, Bio 101) containing luciferase substrate and grown under shaking at 28° C. for 18 hours. […] Plates were incubated for 16 hours at 28° C. in a cabinet and luciferase activity was recorded during the entire period of the experiment using a Topcount™ device (Perkin Elmer).
First, the coding sequence of the DELLA protein GAI (At1g14920) was cloned into the yeast plasmid pDEST32 (Invitrogen) yielding the construct IR236. Subsequently, yeast cells were transformed with the plasmids IR206 or IR214 in combination with the empty pDEST32 vector or IR236. Following the same approach than described before in Example 3, we assayed 4 GA isoforms, the same four than in the former assay. The experimental setting was the same than in Example 3 with the difference that the selective media used was deficient in Trp and Leu (YNB, MPBlo, supplemented with CSM Trp^−Leu^−, Bio 101) to select for the presence of both plasmids within the yeast cells. […]

For assay [4] the following is noted: described ranking of GA isoforms; cited from earlier work.

T2 sequence (Q9LYC1 other isoform, or with tags, fused parts or gaps V53A): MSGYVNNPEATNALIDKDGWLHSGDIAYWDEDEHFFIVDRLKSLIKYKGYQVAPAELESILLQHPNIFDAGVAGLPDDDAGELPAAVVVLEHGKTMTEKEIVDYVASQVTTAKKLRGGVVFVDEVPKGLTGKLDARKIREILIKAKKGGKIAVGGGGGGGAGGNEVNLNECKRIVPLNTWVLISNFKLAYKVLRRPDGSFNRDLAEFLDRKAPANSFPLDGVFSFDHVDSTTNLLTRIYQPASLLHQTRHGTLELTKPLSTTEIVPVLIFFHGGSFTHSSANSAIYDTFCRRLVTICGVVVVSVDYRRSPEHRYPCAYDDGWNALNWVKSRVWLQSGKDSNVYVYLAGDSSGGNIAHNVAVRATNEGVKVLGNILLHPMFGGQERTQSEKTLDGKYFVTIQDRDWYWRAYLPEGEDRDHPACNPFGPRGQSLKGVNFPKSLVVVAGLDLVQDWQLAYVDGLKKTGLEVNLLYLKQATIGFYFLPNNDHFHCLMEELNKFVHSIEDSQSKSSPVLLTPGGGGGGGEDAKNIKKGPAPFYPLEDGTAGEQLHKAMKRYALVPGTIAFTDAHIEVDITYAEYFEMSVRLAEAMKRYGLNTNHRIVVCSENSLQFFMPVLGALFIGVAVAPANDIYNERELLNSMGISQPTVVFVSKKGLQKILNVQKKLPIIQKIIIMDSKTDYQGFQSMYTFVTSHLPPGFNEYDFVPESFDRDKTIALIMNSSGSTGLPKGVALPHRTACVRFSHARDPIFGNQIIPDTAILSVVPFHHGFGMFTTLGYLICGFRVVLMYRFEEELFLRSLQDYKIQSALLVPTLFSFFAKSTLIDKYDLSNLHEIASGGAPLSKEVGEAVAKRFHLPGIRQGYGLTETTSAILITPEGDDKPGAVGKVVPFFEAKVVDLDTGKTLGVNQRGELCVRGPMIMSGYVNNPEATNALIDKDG
T3 sequence (Q940G6 with tags, fused parts or gaps): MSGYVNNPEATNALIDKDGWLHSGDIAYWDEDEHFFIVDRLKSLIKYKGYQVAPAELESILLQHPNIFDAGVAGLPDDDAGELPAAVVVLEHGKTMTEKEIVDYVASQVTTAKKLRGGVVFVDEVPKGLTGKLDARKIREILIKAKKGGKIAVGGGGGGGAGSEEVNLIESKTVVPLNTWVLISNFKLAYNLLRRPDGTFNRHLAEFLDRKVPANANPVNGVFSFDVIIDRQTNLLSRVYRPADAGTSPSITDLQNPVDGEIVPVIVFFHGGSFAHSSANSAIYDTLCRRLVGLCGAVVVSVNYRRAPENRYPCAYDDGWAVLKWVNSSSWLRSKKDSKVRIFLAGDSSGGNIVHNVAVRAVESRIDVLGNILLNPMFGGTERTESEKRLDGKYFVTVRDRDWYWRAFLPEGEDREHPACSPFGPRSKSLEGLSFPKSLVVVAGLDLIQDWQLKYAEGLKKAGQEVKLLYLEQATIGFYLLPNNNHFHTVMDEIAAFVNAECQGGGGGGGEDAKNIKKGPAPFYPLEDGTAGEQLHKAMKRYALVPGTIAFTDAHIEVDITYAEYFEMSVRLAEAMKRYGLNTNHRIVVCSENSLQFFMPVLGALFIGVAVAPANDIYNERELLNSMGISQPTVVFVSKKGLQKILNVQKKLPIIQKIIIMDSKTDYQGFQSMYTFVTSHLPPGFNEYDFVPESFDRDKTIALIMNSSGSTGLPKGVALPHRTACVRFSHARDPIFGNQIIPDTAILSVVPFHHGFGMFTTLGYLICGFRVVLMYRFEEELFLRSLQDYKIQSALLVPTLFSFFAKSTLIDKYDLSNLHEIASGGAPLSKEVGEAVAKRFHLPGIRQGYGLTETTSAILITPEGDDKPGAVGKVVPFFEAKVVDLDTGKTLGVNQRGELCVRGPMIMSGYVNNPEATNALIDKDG
T3 sequence (Q9LQT8 2-533 partner limits assumed): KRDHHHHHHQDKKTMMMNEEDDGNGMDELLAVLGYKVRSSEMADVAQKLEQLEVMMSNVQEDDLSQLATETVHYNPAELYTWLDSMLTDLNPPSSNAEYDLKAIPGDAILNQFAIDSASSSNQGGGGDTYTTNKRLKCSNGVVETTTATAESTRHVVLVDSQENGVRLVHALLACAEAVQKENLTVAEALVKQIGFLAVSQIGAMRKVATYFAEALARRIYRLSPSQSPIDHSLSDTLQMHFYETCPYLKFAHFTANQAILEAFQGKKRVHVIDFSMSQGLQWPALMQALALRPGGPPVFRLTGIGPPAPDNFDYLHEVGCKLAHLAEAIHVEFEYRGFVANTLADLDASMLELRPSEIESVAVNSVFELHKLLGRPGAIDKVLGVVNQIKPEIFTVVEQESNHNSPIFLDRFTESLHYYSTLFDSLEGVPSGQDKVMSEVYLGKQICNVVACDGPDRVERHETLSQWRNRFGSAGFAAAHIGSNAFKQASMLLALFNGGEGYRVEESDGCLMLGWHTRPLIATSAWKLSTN
T1 sequence (Q940G6 with tags, fused parts or gaps): as the sequence (Q940G6 with tags, fused parts or gaps) above

`C=C1C[C@]23C[C@@]1(O)CC[C@H]2[C@@]12C=C[C@H](O)[C@@](C)(C(=O)O1)[C@H]2[C@@H]3C(=O)O` [GA3, gibberellic acid]: in assay [1], the “bioluminescence upon luciferase substrate application” value is “showed bioluminescence”. The luciferase signal result in assay [2] was “clearly higher”.

Regarding `C=C1C[C@]23C[C@H]1CC[C@H]2[C@@]12CC[C@H](O)[C@@](C)(C(=O)O1)[C@H]2[C@@H]3C(=O)OC` [GA4-methylester, GA4-methyl ester], the luciferase signal result in assay [3] is on record as “triggered luciferase signal”. Also, in assay [4], the “biological activity in planta assay” value is reported as “barely active”.

Consider `C=C1C[C@]23C[C@@]1(O)CC[C@H]2[C@@]12CC[C@H](O)[C@@](C)(C(=O)O1)[C@H]2[C@@H]3C(=O)O` [GA1], for which the “biological activity in planta assay” value in assay [4] is given as “less activity”.

In the case of `C=C1C[C@]23C[C@H]1CC[C@H]2[C@@]12CC[C@H](O)[C@@](C)(C(=O)O1)[C@H]2[C@@H]3C(=O)O` [GA4], in assay [4], the “biological activity in planta assay” value is given as “most biologically active”.

The values are drawn from patent publication US10365289B2 (Max-Planck-Gesellschaft zur Forderung der Wissenschaften …, priority 2014, dated 2019).
